Assay results: patent publication US9278915B2, “Agonists of GPR40” (CONNEXIOS LIFE SCIENCES PVT LTD, priority 2010, dated 2016)

Biological target: T1, hGPR40 (Homo sapiens, UniProt O14842)
T1 construct: expressed in transfected cells
Experiment: Calcium flux assay to detect GPR40 activation
Assay type: cell-based
Settings: CHO-K cells stably expressing hGPR40; Fluo-4 NW; read for 4 min at 5 s intervals
How it was run: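 CHO-K cells stably expressing hGPR40 were cultured 24 h at 37 °C and loaded with Fluo-4 NW for 30 min at 37 °C plus 30 min at RT. Compounds diluted in HEPES buffer were added, and calcium fluorescence was recorded for 4 min at 5 s intervals.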

T1 sequence (O14842 whole entry): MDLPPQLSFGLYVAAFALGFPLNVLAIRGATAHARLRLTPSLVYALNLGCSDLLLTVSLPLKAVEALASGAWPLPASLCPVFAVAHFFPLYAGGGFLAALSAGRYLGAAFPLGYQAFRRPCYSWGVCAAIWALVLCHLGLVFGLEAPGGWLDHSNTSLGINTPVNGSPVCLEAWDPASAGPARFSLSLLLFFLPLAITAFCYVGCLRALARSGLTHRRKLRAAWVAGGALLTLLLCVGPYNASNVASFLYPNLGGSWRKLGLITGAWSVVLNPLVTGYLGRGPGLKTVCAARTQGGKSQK

Compound | EC50 [nM]
CO/N=C(\COc1ccc(COc2ccc(/C=C/C(=O)O)c(OC)c2)cc1)c1ccccc1 [Compound 95, (2E,2Z)-3-{2-Methoxy-4-[(4-{[(2Z)-2-(methoxyimino)-2-phenylethyl]oxy}benzyl)oxy]phenyl}prop-2-enoic acid] | > 100
CO/N=C(\COc1ccc(COc2ccc(CCC(=O)O)cc2OC)cc1)c1ccccc1 [Compound 94, 3-{3-Methoxy-4-[(4-{[(2Z)-2-(methoxyimino)-2-phenylethyl]oxy}benzyl)oxy]phenyl}propanoic acid] | > 100
CO/N=C(\COc1ccc(COc2ccc(C(C#N)CC(=O)O)cc2)cc1)c1ccc(F)cc1 (stereo not drawn) [Compound 54, Sodium 3-cyano-3-{4-[(4-{[(2Z)-2-(4-fluorophenyl)-2-(methoxyimino)ethyl]oxy}benzyl)oxy]phenyl}propanoate] | 10 to 100
CO/N=C(\COc1ccc(COc2ccc(C(CC(=O)O)c3ccccc3)cc2)cc1)c1ccccc1 (stereo not drawn) [Compound 112, 3-{4-[(4-{[(2Z)-2-(Methoxyimino)-2-phenylethyl]oxy}benzyl)oxy]phenyl}-3-phenylpropanoic acid] | > 100
CO/N=C(\COc1ccc(COc2ccc(C3CC3C(=O)O)cc2)cc1)c1ccc(C#N)cc1 (single isomer, unassigned) [Compound 79, Sodium 2-{4-[(4-{[(2Z)-2-(4-cyanophenyl)-2-(methoxyimino)ethyl]oxy}benzyl)oxy]phenyl}cyclopropanecarboxylate] | > 100
C=CCO/N=C(\COc1ccc(COc2ccc(CCC(=O)O)cc2)cc1)c1ccccc1 [Compound 110, 3-(4-{[4-({(2E,2Z)-2-Phenyl-2-[(prop-2-en-1-yloxy)imino]ethyl}oxy)benzyl]oxy}phenyl)propanoic acid] | < 10
CO/N=C(/COc1ccc(COc2ccc(C(C#N)CC(=O)O)cc2)cc1)c1ccccc1 (single isomer, unassigned) [Compound 99, 3-Cyano-3-{4-[(4-{[(2E)-2-(methoxyimino)-2-phenylethyl]oxy}benzyl)oxy]phenyl}propanoic acid] | 10 to 100
C=CCO/N=C(/CC(=O)O)c1ccc(OCc2ccc(OCC(=NOC)c3ccccc3)cc2)cc1 (mixture of isomers) [Compound 121, (3Z)-3-{4-[(4-{[(2E,2Z)-2-(Methoxyimino)-2-phenylethyl]oxy}benzyl)oxy]phenyl}-3-[(prop-2-en-1-yloxy)imino]propanoic acid] | > 100
CO/N=C(/COc1ccc(COc2ccc(-c3c(C(=O)O)noc3C)cc2)cc1)c1ccccc1 [Compound 32, 4-{4-[(4-{[(2E,2Z)-2-(Methoxyimino)-2-phenylethyl]oxy}benzyl)oxy]phenyl}-5-methyl-1,2-oxazole-3-carboxylic acid] | > 100
CO/N=C(\COc1ccc(COc2ccc(C(C#N)CC(=O)O)cc2)cc1)c1ccccc1 (single isomer, unassigned; (+)) [Compound 81, (+)-Sodium 3-cyano-3-{4-[(4-{[(2Z)-2-(methoxyimino)-2-phenylethyl]oxy}benzyl)oxy]phenyl}propanoate] | 10 to 100
CCCC(CC(=O)O)c1ccc(OCc2ccc(OC/C(=N\OC)c3ccccc3)cc2)cc1 (stereo not drawn) [Compound 91, 3-{4-[(4-{[(2Z)-2-(Methoxyimino)-2-phenylethyl]oxy}benzyl)oxy]phenyl}hexanoic acid] | > 100
CO/N=C(/COc1ccc(COc2ccc(C(C#N)CC(=O)O)cc2)cc1)c1ccccc1 (stereo not drawn) [Compound 53, Sodium 3-cyano-3-{4-[(4-{[(2E)-2-(methoxyimino)-2-phenylethyl]oxy}benzyl)oxy]phenyl}propanoate] | 10 to 100
CO/N=C(\c1ccccc1)c1cccc(COc2ccc(CC(=O)O)cc2)c1 [Compound 19, [4-({3-[(E,Z)-(Methoxyimino)(phenyl)methyl]benzyl}oxy)phenyl]acetic acid] | > 100
CN(C)CCO/N=C(/c1ccccc1)c1cccc(COc2ccc(CCC(=O)O)cc2)c1 [Compound 11, 3-[4-({3-[(E,Z)-{[2-(Dimethylamino)ethoxy]imino}(phenyl)methyl]benzyl}oxy)phenyl]propanoic acid] | > 100
CO/N=C(/c1ccccc1)c1cccc(CNc2ccc(C3CC3C(=O)O)cc2)c1 (racemic) [Compound 13, (1R,2R)-2-[4-({3-[(E,Z)-(Methoxyimino)(phenyl)methyl]benzyl}amino)phenyl]cyclopropanecarboxylic acid] | 10 to 100

Continued, values first:

EC50 [nM] | Compound
> 100 | CO/N=C(\COc1ccc(COc2ccc(C(C#N)CC(=O)O)cc2)cc1)C1CC1 (stereo not drawn) [Compound 105, 3-Cyano-3-{4-[(4-{[(2Z)-2-cyclopropyl-2-(methoxyimino)ethyl]oxy}benzyl)oxy]phenyl}propanoic acid]
> 100 | CO/N=C(\COc1ccc(COc2ccc(OCC(=O)O)cc2)cc1)c1ccccc1 [Compound 117, {4-[(4-{[(2Z)-2-(Methoxyimino)-2-phenylethyl]oxy}benzyl)oxy]phenoxy}acetic acid]
10 to 100 | CO/N=C(\COc1ccc(COc2ccc(C(C#N)CC(=O)O)cc2)cc1)c1ccc2c(c1)CCC2 (stereo not drawn) [Compound 103, 3-Cyano-3-{4-[(4-{[(2Z)-2-(2,3-dihydro-1H-inden-5-yl)-2-(methoxyimino)ethyl]oxy}benzyl)oxy]phenyl}propanoic acid]
< 10 | CO/N=C(/COc1ccc(COc2ccc(C(C#N)CC(=O)O)cc2)c(F)c1)c1ccccc1 (racemic) [Compound 23, 3-Cyano-3-{4-[(2-fluoro-4-{[(2E,2Z)-2-(methoxyimino)-2-phenylethyl]oxy}benzyl)oxy]phenyl}propanoic acid]
> 100 | CO/N=C(\COc1ccc(COc2ccc(CCC(=O)O)c(OC(C)C)c2)cc1)c1ccccc1 [Compound 60, 3-{4-[(4-{[(2Z)-2-(Methoxyimino)-2-phenylethyl]oxy}benzyl)oxy]-2-(propan-2-yloxy)phenyl}propanoic acid]
> 100 | CO/N=C(\COc1ccc(COc2ccc(CCC(=O)O)c(OC)c2)cc1)c1ccc(C#N)cc1 [Compound 43, 3-{4-[(4-{[(2Z)-2-(4-Cyanophenyl)-2-(methoxyimino)ethyl]oxy}benzyl)oxy]-2-methoxyphenyl}propanoic acid]
> 100 | CO/N=C(\COc1ccc(COc2cc(F)c(CCC(=O)O)cc2F)cc1)c1ccccc1 [Compound 86, 3-{2,5-Difluoro-4-[(4-{[(22)-2-(methoxyimino)-2-phenylethyl]oxy}benzyl)oxy]phenyl}propanoic acid]
> 100 | CO/N=C(\COc1ccc(COc2ccc(/C(CC(=O)O)=N\OC3CCCCC3)cc2)cc1)c1ccccc1 [Compound 124, (3E,3Z)-3-[(Cyclohexyloxy)imino]-3-{4-[(4-{[(2Z)-2-(methoxyimino)-2-phenylethyl]oxy}benzyl)oxy]phenyl}propanoic acid]
> 100 | CON=C(COCC1CCC(COc2ccc(CCC(=O)O)cc2)CC1)c1ccccc1 (stereo not drawn) [Compound 113, 3-(4-{[4-({[(2E,2Z)-2-(Methoxyimino)-2-phenylethyl]oxy}methyl)cyclohexyl]methoxy}phenyl)propanoicacid]
> 100 | CO/N=C(\COc1ccc(COc2ccc(CCC(N)=O)cc2)cc1)c1ccccc1 [Compound 120, 3-{4-[(4-{[(2Z)-2-(Methoxyimino)-2-phenylethyl]oxy}benzyl)oxy]phenyl}propanamide]
> 100 | CO/N=C(\COc1ccc(COc2ccc(CCC(=O)O)c(C)c2)cc1)c1ccccc1 [Compound 38]
> 100 | CO/N=C(\COc1ccc(COc2ccc(CCC(=O)O)c(OC)c2)cc1)c1ccccc1 [Compound 37, 3-{2-Methoxy-4-[(4-{[(2Z)-2-(methoxyimino)-2-phenylethyl]oxy}benzyl)oxy]phenyl}propanoic acid]
10 to 100 | CO/N=C(/COc1ccc(COc2ccc(C(C#N)CC(=O)O)cc2)cc1)c1cccc(C)c1 (racemic) [Compound 27, 3-Cyano-3-{4-[(4-{[(2E,2Z)-2-(methoxyimino)-2-(3-methylphenyl)ethyl]oxy}benzyl)oxy]phenyl}propanoic acid]
< 10 | CO/N=C(\COc1ccc(COc2ccc(CCC(=O)O)c(F)c2)cc1)c1ccc(C#N)cc1 [Compound 39]
> 100 | CON=C(COc1ccc(COc2ccc(C(C)(C)CC(=O)O)cc2)cc1)c1ccccc1 (mixture of isomers) [Compound 61, 3-{4-[(4-{[(2E,2Z)-2-(Methoxyimino)-2-phenylethyl]oxy}benzyl)oxy]phenyl}-3-methylbutanoic acid]
> 100 | CON=C(COc1ccc(COc2ccc(CCC(=O)O)c(OCC(=O)O)c2)cc1)c1ccccc1 (mixture of isomers) [Compound 89, 3-{2-(Carboxymethoxy)-4-[(4-{[(2E,2Z)-2-(methoxyimino)-2-phenylethyl]oxy}benzyl)oxy]phenyl}propanoic acid]
> 100 | CO/N=C(\COc1ccc(COc2ccc(-c3c(C)noc3CC(=O)O)cc2)cc1)c1ccccc1 [Compound 69, (4-{4-[(4-{[(2Z)-2-(Methoxyimino)-2-phenylethyl]oxy}benzyl)oxy]phenyl}-3-methyl-1,2-oxazol-5-yl)acetic acid]
> 100 | CO/N=C(\COc1ccc(COc2ccc(CCC(=O)O)c(F)c2)cc1)c1ccccc1 [Compound 71, Sodium 3-{2-fluoro-4-[(4-{[(2Z)-2-(methoxyimino)-2-phenylethyl]oxy}benzyl)oxy]phenyl}propanoate]
< 10 | CO/N=C(\COc1ccc(COc2ccc(C(C#N)CC(=O)O)cc2)cc1)c1ccccc1 (single isomer, unassigned; (-)) [Compound 82, (−)-Sodium 3-cyano-3-{4-[(4-{[(2E,2Z)-2-(methoxyimino)-2-phenylethyl]oxy}benzyl)oxy]phenyl}propanoate]
< 10 | CO/N=C(\COc1ccc(COc2ccc(C(C#N)CC(=O)O)cc2)cc1)c1cccc(F)c1 (stereo not drawn) [Compound 55, Sodium 3-cyano-3-{4-[(4-{[(2Z)-2-(3-fluorophenyl)-2-(methoxyimino)ethyl]oxy}benzyl)oxy]phenyl}propanoate]
> 100 | CO/N=C(\COc1ccc(COc2ccc(C(O)CC(=O)O)cc2)cc1)c1ccccc1 (stereo not drawn) [Compound 118, 3-Hydroxy-3-{4-[(4-{[(2Z)-2-(methoxyimino)-2-phenylethyl]oxy}benzyl)oxy]phenyl}propanoic acid]
